{
  "source": "patent US20240239883A1",
  "about": "“METHODS OF TREATING HOMOLOGOUS RECOMBINATION DEFICIENT CANCER” (ASTRAZENECA AB, priority 2020, published 2024)",
  "key": {"[1]": {"conditions": "in vivo", "procedure": "The study design was put into practice as the PAOLA-1/ENGOT-ov25 trial (NCT02477644), which was a randomised, double-blind, international phase III trial that enrolled patients with newly diagnosed, FIGO stage III-IV, high-grade serous or endometrioid ovarian cancer, fallopian tube or primary peritoneal cancer.\nPatients were randomized in a 2:1 ratio to the treatments as specified below: • 1. Olaparib tablets orally 300 mg twice daily (bd) • 2. Placebo tablets orally 300 mg bd\nThe “overall study duration” phase was defined as from the first dose of olaparib or placebo until the last dose of olaparib or placebo+30 days (to account for the 30 day follow-up period).\nCommon Terminology Criteria for Adverse Events (CTCAE) (version 4.03) defines Grade 1 hypertension as having systolic BP 120-139 mmHg or diastolic BP 80-89 mm Hg; Grade 2 as having systolic BP 140-159 mmHg or diastolic BP 90-99 mm Hg, or recurrent or persistent (≥24 hrs) symptomatic increase by >20 mm Hg (diastolic) or to >140/90 mmHg; Grade 3 as having systolic BP ≥160 mmHg or diastolic BP ≥100 mmHg; Grade 4 hypertension as having life-threatening consequences, e.g., requiring urgent intervention; and Grade 5 hypertension as death.\nAn adverse event considered “serious” if, in the view of either the investigator or sponsor, it results in any of the following outcomes: death, a life-threatening adverse event, inpatient hospitalization or prolongation of existing hospitalization, or a persistent or significant incapacity or substantial disruption of the ability to conduct normal life functions.\nCommon Terminology Criteria for Adverse Events (CTCAE) (version 4.03) defines Grade 1 proteinuria as urine dipstick 1+ or <1.0 grams of protein per 24 hours; Grade 2 as urine dipstick 2+ or 1.0-3.4 grams of protein per 24 hours; Grade 3 as urine dipstick 4+ or ≥3.5 grams of protein per 24 hours."}, "[2]": {"conditions": "cited from earlier work"}, "[3]": {"tested_on": "patients with newly diagnosed, FIGO stage III-IV, high-grade serous or endometrioid ovarian cancer, fallopian tube or primary peritoneal cancer", "experiment": "PAOLA-1/ENGOT-ov25 phase III trial, first line maintenance: progression-free survival and other efficacy variables", "format": "in vivo, human", "procedure": "Olaparib tablets orally 300 mg twice daily (bd) • 2. Placebo tablets orally 300 mg bd\nPatients included in the study were female patients with newly diagnosed advanced (FIGO (International Federation of Gynaecology and Obstetrics) Stage IIIB, IIIC or IV) ovarian cancer, primary peritoneal cancer and/or fallopian tube cancer that was histologically confirmed as: (a) high-grade serous, or (b) high-grade endometrioid, or (c) other epithelial non mucinous ovarian cancer in a patient with gBRCA1 or 2 deleterious mutation.\nAdditionally, patents had completed first line platinum-taxane chemotherapy prior to randomization. Specifically, the platinum-taxane based regimen consisted of a minimum of 6 and a maximum of 9 treatment cycles; however, if platinum-based therapy was discontinued early as a result of non-haematological toxicity specifically related to the platinum regimen, (i.e., neurotoxicity, hypersensitivity, etc.), patients must have received a minimum of 4 cycles of the platinum regimen. Intravenous, intraperitoneal, or neoadjuvant platinum based chemotherapy was also allowed; for weekly therapy, 3 weeks was considered to be 1 cycle.\nPrior to randomization, patients had no evidence of disease (NED) or had been in clinical complete response (CR) or in partial response (PR) following first line treatment. There should have been no clinical evidence of disease progression (physical exam, imaging, or cancer antigen-125 (CA-125)) throughout the first line treatment and prior to study randomization.\nFinally, patients were randomized at least 3 weeks and no more than 9 weeks after their last dose of chemotherapy (last dose is the day of the last infusion) and all major toxicities from the previous chemotherapy were resolved.\nTumor samples from the patients were tested post-randomization (but prior to database lock) using the Myriad myChoice® HRD Plus test in order to investigate efficacy in pre-defined biomarker subgroups. The Myriad myChoice® HRD Plus test is delivered from a single central laboratory in Salt Lake City, Utah; it detects and classifies the following biomarkers simultaneously in tumor tissue:\nMyriad HRD status is based on the Myriad HRD score and tBRCAm status. A positive Myriad HRD status is determined either by presence of a tBRCA1/2 mutation or by an HRD score at or above a pre-specified cut-off in the absence of a BRCA1/2 mutation. The Myriad HRD cut-off of 42 detects 95% of BRCAm tumors and has been extensively investigated as a biomarker of PARP inhibitor benefit in ovarian cancer. The cut-off of 42 has now been FDA-approved for another PARP inhibitor for the treatment of relapsed ovarian cancer (Myriad myChoice® HRD test offered under the name myChoice® CDx). Reducing the cut-off to 33, enables detection of 99% of BRCAm tumors and retrospective analyses from 2 clinical studies raised the possibility that a 33 cut-off may provide greater precision in determining patients who may benefit from PARP inhibitor treatment.\nThe data cut-off (DCO) for the analysis of progression-free survival (PFS) PFS is time from randomization to first progression or death according to modified Response Evaluation Criteria in Solid Tumours (RECIST version 1.1). PFS took place when 474 progression events had occurred (58.8% maturity), approximately 45 months after the first patient was randomized. At this DCO, all efficacy, QoL and safety variables were analyzed, as appropriate, based on the amount of data available at that time.\nPFS (based on investigator assessment) was the primary variable for the study and was analyzed based on the primary data cut-off using the investigator assessment population."}, "[4]": {"conditions": "overall population, KM estimate"}, "[5]": {"conditions": "overall population, KM estimate, listed as placebo-plus-bevacizumab"}, "[6]": {"conditions": "overall population, KM estimate, listed as placebo/bevacizumab"}},
  "note": "Several values for one entry are separate records, joined by “and”; a condition that tells them apart may be missing. Equal entries are not always repeated.",
  "data": [
    {"molecule": "bevacizumab: recombinant humanized monoclonal IgG1 antibody, vascular endothelial growth factor inhibitor", "values": [
      {"measurement": "incidence of CTCAE Grade ≥3 hypertension", "setting": "[1]", "result": "about 30%"},
      {"measurement": "overall incidence of proteinuria (all grades)", "setting": "[2]; Study BO17705", "result": 20, "unit": "%"},
      {"measurement": "patients in whom proteinuria did not resolve", "setting": "[2]; after median follow-up of 11.2 months", "result": 40, "unit": "%"},
      {"measurement": "proteinuria required discontinuation of bevacizumab", "setting": "[2]; of the patients who developed proteinuria", "result": 30, "unit": "%"}
    ]},
    {"molecule": "O=C(c1cc(Cc2n[nH]c(=O)c3ccccc23)ccc1F)N1CCN(C(=O)C2CC2)CC1", "note": "[olaparib, 4-[(3-{[4-(cyclopropane-carbonyl)piperazine-1-yl]carbonyl}-4-fluorophenyl)methyl]-2H-phthalazin-1-one]", "values": [
      {"measurement": "progression free survival greater than for subjects receiving bevacizumab alone", "setting": "[3]; overall subject population, olaparib in addition to bevacizumab", "result": "at least 4 months"}
    ]},
    {"molecule": "Placebo/bevacizumab: Comparator arm: placebo tablets plus bevacizumab 15 mg/kg every 3 weeks (bevacizumab alone, without olaparib)", "values": [
      {"measurement": "patients not classified as having had a second progression at the time of analysis (PFS2)", "setting": "[3]; PFS2 data 39.1% mature", "result": 55.8, "unit": "%"},
      {"measurement": "median time until the first subsequent treatment", "setting": "[3]; all patients", "result": 18.5, "unit": "months"},
      {"measurement": "rate of freedom from second disease progression and death at 18 months", "setting": "[3]; interim analysis of second progression-free survival, data maturity 39%, Kaplan-Meier estimate", "result": 80, "unit": "%"},
      {"measurement": "patients for whom progression occurred on treatment", "setting": "[3]; overall population", "result": 71.6, "unit": "%"},
      {"measurement": "patients not classified as having progressed at the time of analysis", "setting": "[3]; overall population", "result": 27.9, "unit": "%"},
      {"measurement": "n (%) of events (PFS)", "setting": "[3]; overall population (FAS), investigator assessment, modified RECIST 1.1 or death, primary data cut-off", "result": "194 (72.1) n (%)"},
      {"measurement": "Progression free at 6 months", "setting": "[3]; [4]", "result": 85.3, "unit": "%"},
      {"measurement": "Progression free at 12 months", "setting": "[3]; [4]", "result": 65.6, "unit": "%"},
      {"measurement": "Progression free at 18 months", "setting": "[3]; [4]", "result": 45.8, "unit": "%"},
      {"measurement": "Progression free at 24 months", "setting": "[3]; [4]", "result": 27.7, "unit": "%"},
      {"measurement": "Progression free at 12 months", "setting": "[3]; [5]", "result": 66, "unit": "%"},
      {"measurement": "Progression free at 18 months", "setting": "[3]; [5]", "result": 46, "unit": "%"},
      {"measurement": "Progression free at 24 months", "setting": "[3]; [5]", "result": 28, "unit": "%"},
      {"measurement": "Progression free at 12 months", "setting": "[3]; [6]", "result": 65.6, "unit": "%"},
      {"measurement": "Progression free at 24 months", "setting": "[3]; [6]", "result": 27.7, "unit": "%"},
      {"measurement": "Median PFS (95% CI)", "setting": "[3]; overall population, KM techniques", "result": "16.6 months and 16.6 (15.4, 18.6) months"},
      {"measurement": "proportion of patients with PFS events", "setting": "[3]; overall population, at data cut-off (474 events, 58.8% maturity)", "result": 72.1, "unit": "%"},
      {"measurement": "median progression-free survival", "setting": "[3]; patients with HRD-negative tumors (277 patients)", "result": 16.2, "unit": "months"},
      {"measurement": "median progression-free survival", "setting": "[3]; patients with HRD-negative tumors or whose tumor HRD status was unknown (419 patients)", "result": 16.0, "unit": "months"},
      {"measurement": "median progression-free survival", "setting": "[3]; patients with HRD-positive tumors that did not have BRCA mutations (FIG. 3D)", "result": 16.6, "unit": "months"},
      {"measurement": "median progression-free survival", "setting": "[3]; patients with a tumor BRCA mutation (FIG. 3A)", "result": 21.7, "unit": "months"},
      {"measurement": "median progression-free survival", "setting": "[3]; patients with tumors positive for HRD (score ≥42 on myChoice HRD Plus or tumor BRCA mutation) (FIG. 3C)", "result": 17.7, "unit": "months"},
      {"measurement": "median progression-free survival", "setting": "[3]; patients without a tumor BRCA mutation (FIG. 3B)", "result": 16.0, "unit": "months"},
      {"measurement": "Hypertension (serious adverse events)", "setting": "[1]", "result": "35 (13.1) Number (%) of patients"},
      {"measurement": "Hypertension CTCAE all Grades", "setting": "[1]", "result": "160 (59.9) Number (%) of patients"},
      {"measurement": "Proteinuria CTCAE Grade 3 or higher", "setting": "[1]", "result": "1 (0.4) Number (%) of patients"},
      {"measurement": "Proteinuria CTCAE all Grades", "setting": "[1]", "result": "40 (15.0) Number (%) of patients"},
      {"measurement": "Vascular disorders (serious adverse events)", "setting": "[1]", "result": "35 (13.1) Number (%) of patients"},
      {"measurement": "adverse drug reactions of proteinuria", "setting": "[1]", "result": 15.4, "unit": "%"},
      {"measurement": "patients who reported adverse events (AEs)", "setting": "[1]", "result": 95.9, "unit": "%"}
    ]}
  ]
}
